Laboratory results published in patent publication US20050282743A1, “Molecular interactions in cells” (Arbor Vita Corporation, priority 2001, published 2005).
Ends that are not written are not given here. Peptide text beside a SMILES is read from it. * marks the point of attachment. Biotin = O=C1N[C@H]2[C@H](CS[C@H]2CCCCC(=O)*)N1

Tests used:
Type in all cases: binding
NeDLG (PDZ Domain 1, 2) = biological target: T1, NeDLG (PDZ Domain 1, 2) (Homo sapiens, UniProt Q92796); test: G' assay, TABLE 12; details: A450 nm class of biotinylated PL peptide bound; 0 in conc columns = peptide 10 uM, protein 5 ug/ml
T1 construct: When more than one PDZ domain was cloned, the DNA portion cloned represents the PDZ domains and the cDNA portion located between individual domains; made in house; host or cells: E. coli (DH5alpha, BL21 or JM109)
T1 sequence (Q92796 129-315 limits assumed): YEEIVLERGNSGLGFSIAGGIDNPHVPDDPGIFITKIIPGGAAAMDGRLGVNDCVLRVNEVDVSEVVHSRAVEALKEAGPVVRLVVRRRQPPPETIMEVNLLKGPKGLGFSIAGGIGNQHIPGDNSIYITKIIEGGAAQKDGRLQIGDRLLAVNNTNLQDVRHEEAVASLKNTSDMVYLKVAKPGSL
Method in brief: (§1)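 PL peptide binding to PDZ domain protein, peptide at 10 uM; protein at 5 ug/ml unless another concentration is listed for Kd determination. Bound peptide read at A450 nm and binned into classes 0–5.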

DLG1 (PDZ Domain 1, 2) = biological target: T2, DLG1 (PDZ Domain 1, 2) (Homo sapiens, UniProt Q12959); test: G' assay, TABLE 12; details: A450 nm class of biotinylated PL peptide bound; 0 in conc columns = peptide 10 uM, protein 5 ug/ml
T2 construct: made in house; host or cells: E. coli (DH5alpha, BL21 or JM109)
T2 sequence (Q12959 213-413 limits assumed): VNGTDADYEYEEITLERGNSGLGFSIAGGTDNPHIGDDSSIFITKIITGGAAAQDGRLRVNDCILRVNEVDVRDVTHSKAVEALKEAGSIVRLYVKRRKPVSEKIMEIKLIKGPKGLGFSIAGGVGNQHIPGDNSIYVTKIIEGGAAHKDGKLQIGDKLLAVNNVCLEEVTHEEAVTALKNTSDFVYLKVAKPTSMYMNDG
Method in brief: as §1

[1] = biological target: T3, PSD95 (PDZ Domain 1, 2, 3) (Homo sapiens, UniProt P78352); test: G' assay, TABLE 12; details: A450 nm class of biotinylated PL peptide bound; 0 in conc columns = peptide 10 uM, protein 5 ug/ml
T3 construct: When more than one PDZ domain was cloned, the DNA portion cloned represents the PDZ domains and the cDNA portion located between individual domains; made in house; host or cells: E. coli (DH5alpha, BL21 or JM109)
T3 sequence (P78352 58-398 limits assumed): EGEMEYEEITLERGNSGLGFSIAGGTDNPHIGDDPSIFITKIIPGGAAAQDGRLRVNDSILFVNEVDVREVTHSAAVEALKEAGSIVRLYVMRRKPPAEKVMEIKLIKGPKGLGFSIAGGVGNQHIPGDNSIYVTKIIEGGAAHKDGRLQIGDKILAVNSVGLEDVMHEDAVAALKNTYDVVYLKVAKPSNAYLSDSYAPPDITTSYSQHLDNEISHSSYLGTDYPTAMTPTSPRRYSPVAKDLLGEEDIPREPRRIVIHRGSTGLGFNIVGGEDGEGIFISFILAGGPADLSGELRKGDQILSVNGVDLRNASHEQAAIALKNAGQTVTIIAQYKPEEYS
Method in brief: as §1

[2] = biological target: T4, KIAA0807(S) (PDZ Domain 1) (Homo sapiens, UniProt Q6P0Q8); test: G' assay and Kd titration, TABLE 12; details: for Classification: A450 nm class of biotinylated PL peptide bound, 0 in conc columns = peptide 10 uM, protein 5 ug/ml
T4 construct: made in house; host or cells: E. coli (DH5alpha, BL21 or JM109)
T4 sequence (Q6P0Q8 with tags, fused parts or gaps): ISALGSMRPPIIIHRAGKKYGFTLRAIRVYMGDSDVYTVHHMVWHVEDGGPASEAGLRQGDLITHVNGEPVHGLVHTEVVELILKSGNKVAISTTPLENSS
Description: The third column labeled “Peptide Optimal Concentration” in the tables is a number reflective of the binding interaction between the PL protein and PDZ protein. […] The column labeled “Protein Optimal Concentration” refers to the protein concentration used to assay PL interaction (in ug/ml); a ‘0’ is indicative of 5 ug/ml protein concentration; any other value represents the concentration (in ug/ml) used to determine the dissociation constant for a given interaction.
Finally, the seventh column labeled “Classification” is another measure of the level of binding. In particular, it provides an absorbance value at 450 nm which indicates the amount of PL peptide bound to the PDZ protein. The following numerical values have the following meanings: ‘1’—A450 nm 0-1; ‘2’—A450 nm 1-2; ‘3’—A450 nm 2-3; ‘4’—A450 nm 3-4; ‘5’—A450 nm of 4 more than 2× repeated; ‘0’—A450 nm 0, i.e., not found to interact. Thus, higher numbers indicate stronger interactions.
For convenience, the assay conditions described in this section are referred to as the “G′ assay” and the “G″ assay,” with the specific conditions described in the preceding section on G assays being referred to as the “G^0 assay.” The “G′ assay” is identical to the “G^0 assay” except at step (2) the peptide concentration is 10 uM instead of 20 uM.

KIAA807 = biological target: T5, KIAA807 (Homo sapiens, UniProt Q6P0Q8); test: G' assay, TABLE 12; details: A450 nm class of biotinylated PL peptide bound; 0 in conc columns = peptide 10 uM, protein 5 ug/ml
T5 construct: made in house; host or cells: E. coli (DH5alpha, BL21 or JM109)
T5 sequence (Q6P0Q8 1104-1192 limits assumed): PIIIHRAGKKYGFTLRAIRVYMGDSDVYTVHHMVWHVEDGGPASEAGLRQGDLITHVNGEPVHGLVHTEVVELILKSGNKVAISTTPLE
Method in brief: as §1

| Classification [2] | Classification (KIAA807) | Kd ([2]; titration of PL peptide, KIAA0807(S) protein 0.5 ug/ml, read-out: Peptide Optimal Conc (Kd)) [nM] | Compound | Classification (NeDLG (PDZ Domain 1, 2)) | Classification (DLG1 (PDZ Domain 1, 2)) | Classification [1] |
| --- | --- | --- | --- | --- | --- | --- |
| – | – | – | CC[C@H](C)[C@H](NC(=O)[C@H](CC(=O)O)NC(=O)[C@H](CCC(=O)O)NC(=O)[C@H](CCCNC(=N)N)NC(=O)[C@@H](NC(=O)CCCC[C@@H]1SC[C@@H]2NC(=O)N[C@@H]21)[C@@H](C)O)C(=O)N[C@@H](Cc1ccc(O)cc1)C(=O)N[C@H](C(=O)N[C@@H](CC(N)=O)C(=O)N[C@@H](Cc1ccc(O)cc1)C(=O)N1CCC[C@H]1C(=O)N[C@H](C(=O)N[C@@H](Cc1ccccc1)C(=O)N[C@@H](CO)C(=O)N[C@@H](CCCNC(=N)N)C(=O)N[C@@H](CCCNC(=N)N)C(=O)N1CCC[C@H]1C(=O)N[C@@H](CCCCN)C(=O)N[C@H](C(=O)N[C@@H](CCCNC(=N)N)C(=O)N[C@H](C(=O)O)C(C)C)[C@@H](C)O)[C@@H](C)O)C(C)C [DNAM-1] (Biotin-TREDIYVNYPTFSRRPKTRV-OH; C-terminus assumed) | 2 (A450 nm 1-2) | 1 (A450 nm 0-1) | 2 (A450 nm 1-2) |
| – | – | – | CC[C@H](C)[C@H](NC(=O)[C@H](CCC(=O)O)NC(=O)[C@H](CC(N)=O)NC(=O)[C@H](CCCNC(=N)N)NC(=O)[C@H](Cc1ccccc1)NC(=O)[C@H](CC(N)=O)NC(=O)[C@H](CO)NC(=O)[C@H](CC(N)=O)NC(=O)[C@H](CCC(=O)O)NC(=O)[C@H](CO)NC(=O)[C@H](CC(=O)O)NC(=O)[C@H](CO)NC(=O)[C@@H](NC(=O)[C@@H](NC(=O)[C@H](CC(=O)O)NC(=O)[C@H](CCCCN)NC(=O)CCCC[C@@H]1SC[C@@H]2NC(=O)N[C@@H]21)[C@@H](C)CC)[C@@H](C)O)C(=O)N[C@@H](CCC(N)=O)C(=O)N[C@@H](CO)C(=O)N[C@@H](CC(C)C)C(=O)N[C@H](C(=O)O)C(C)C [CD95] (Biotin-KDITSDSENSNFRNEIQSLV-OH; C-terminus assumed) | 1 (A450 nm 0-1) | 2 (A450 nm 1-2) | 1 (A450 nm 0-1) |
| 3 (A450 nm 2-3) | – | – | CC(C)C[C@H](NC(=O)CNC(=O)[C@@H](NC(=O)[C@H](CO)NC(=O)[C@H](CC(N)=O)NC(=O)[C@H](Cc1ccccc1)NC(=O)CNC(=O)[C@H](C)NC(=O)[C@H](C)NC(=O)[C@H](Cc1ccccc1)NC(=O)[C@@H](NC(=O)CCCC[C@@H]1SC[C@@H]2NC(=O)N[C@@H]21)[C@@H](C)O)[C@@H](C)O)C(=O)N1CCC[C@H]1C(=O)N[C@@H](Cc1c[nH]cn1)C(=O)N[C@@H](CO)C(=O)N[C@H](C(=O)N[C@H](C(=O)N[C@@H](CCCNC(=N)N)C(=O)N[C@H](C(=O)O)C(C)C)[C@@H](C)O)[C@@H](C)O [Neuroligin] (Biotin-TFAAGFNSTGLPHSTTRV-OH; C-terminus assumed) | – | – | – |
| 3 (A450 nm 2-3) | 5 (A450 nm of 4 more than 2× repeated) | – | QATSRNGHSARQHVVADTEL (Biotin-QATSRNGHSARQHVVADTEL) [CD34] | – | – | – |
| – | – | – | ISGTPTSTMVHGMTSSSSVV (Biotin-ISGTPTSTMVHGMTSSSSVV) [Clasp-2] | 2 (A450 nm 1-2) | – | 2 (A450 nm 1-2) |
| 5 (A450 nm of 4 more than 2× repeated) | 5 (A450 nm of 4 more than 2× repeated) | 350 | CC[C@H](C)[C@H](NC(=O)[C@H](CO)NC(=O)[C@H](CCC(=O)O)NC(=O)[C@H](Cc1ccc(O)cc1)NC(=O)[C@H](CC(=O)O)NC(=O)[C@H](CC(N)=O)NC(=O)[C@H](CCC(=O)O)NC(=O)[C@H](CCCCN)NC(=O)CCCC[C@@H]1SC[C@@H]2NC(=O)N[C@@H]21)C(=O)N[C@@H](CO)C(=O)N[C@@H](CC(=O)O)C(=O)N[C@@H](CC(C)C)C(=O)N[C@@H](CCC(N)=O)C(=O)N[C@@H](CCC(N)=O)C(=O)NCC(=O)N[C@@H](CCCNC(=N)N)C(=O)N[C@@H](CC(=O)O)C(=O)N[C@H](C(=O)N[C@H](C(=O)N[C@@H](CCCNC(=N)N)C(=O)N[C@@H](CC(C)C)C(=O)O)[C@@H](C)O)[C@@H](C)CC [PAG] (Biotin-KENDYESISDLQQGRDITRL-OH; C-terminus assumed) | – | – | – |
| 1 (A450 nm 0-1) | – | – | ARHRVTSYTSSSVNVSSNL (Biotin-ARHRVTSYTSSSVNVSSNL) [IL-8RB] | – | – | 1 (A450 nm 0-1) |
| 4 (A450 nm 3-4) | 5 (A450 nm of 4 more than 2× repeated) | – | LASKSAEEGKQIPDSLSTDL (Biotin-LASKSAEEGKQIPDSLSTDL) [Dock2] | – | – | – |

| Compound | Classification [2] | Classification (KIAA807) | Kd ([2]; titration of PL peptide, KIAA0807(S) protein 0.5 ug/ml, read-out: Peptide Optimal Conc (Kd)) [nM] | Classification (NeDLG (PDZ Domain 1, 2)) | Classification (DLG1 (PDZ Domain 1, 2)) | Classification [1] |
| --- | --- | --- | --- | --- | --- | --- |
| CC(C)C[C@H](NC(=O)[C@H](C)NC(=O)[C@@H](NC(=O)[C@@H](NC(=O)[C@H](Cc1c[nH]cn1)NC(=O)[C@H](CC(C)C)NC(=O)CNC(=O)[C@H](CCC(N)=O)NC(=O)CNC(=O)CNC(=O)[C@H](C)NC(=O)[C@H](C)NC(=O)[C@H](CCCNC(=N)N)NC(=O)[C@H](C)NC(=O)[C@H](CO)NC(=O)[C@H](CC(=O)O)NC(=O)[C@H](CC(=O)O)NC(=O)[C@H](Cc1c[nH]c2ccccc12)NC(=O)[C@H](C)NC(=O)CCCC[C@@H]1SC[C@@H]2NC(=O)N[C@@H]21)C(C)C)[C@@H](C)O)C(=O)O [LPAP] (Biotin-AWDDSARAAGGQGLHVTAL-OH; C-terminus assumed) | 5 (A450 nm of 4 more than 2× repeated) | – | – | – | – | – |
| CC[C@H](C)[C@H](NC(=O)[C@H](CCC(N)=O)NC(=O)CCCC[C@@H]1SC[C@@H]2NC(=O)N[C@@H]21)C(=O)N[C@@H](CO)C(=O)N1CCC[C@H]1C(=O)NCC(=O)NCC(=O)N[C@@H](CC(C)C)C(=O)N[C@@H](CCC(=O)O)C(=O)N1CCC[C@H]1C(=O)N1CCC[C@H]1C(=O)N[C@@H](CO)C(=O)N[C@@H](CCC(=O)O)C(=O)N[C@@H](CCCCN)C(=O)N[C@@H](Cc1c[nH]cn1)C(=O)N[C@@H](Cc1ccccc1)C(=O)N[C@@H](CCCNC(=N)N)C(=O)N[C@@H](CCC(=O)O)C(=O)N[C@H](C(=O)N[C@@H](CCC(=O)O)C(=O)N[C@H](C(=O)O)C(C)C)[C@@H](C)O [Tax] | 5 (A450 nm of 4 more than 2× repeated) | 5 (A450 nm of 4 more than 2× repeated) | – | 5 (A450 nm of 4 more than 2× repeated) | 5 (A450 nm of 4 more than 2× repeated) | 5 (A450 nm of 4 more than 2× repeated) |
